SMILES strings stand for the structures. Where “and” joins values, the source holds several entries; their conditions need not be identical. Equal entries are not always repeated. Some results are limits rather than exact numbers.

As a reminder, the IC50 is the point on the concentration scale where inhibition reaches its midpoint.

In one series the test system is MIA PaCa-2 cells. Conditions: read-out: IC50 MIA PaCa-2; human pancreatic carcinoma cell, 72 h, mean ± SE (n = 3). On the procedure: (§1) With a range of chromophore analogues in hand, their toxicity to SW620 cells was investigated by WST assays.
(§2) Basically, the evaluation was performed using methods previously reported by our group[20],[23]. Cytotoxic activities of compounds against MIA PaCa-2 (American Type Culture Collection), SW620 (European Collection of Authenticated Cell Cultures) were measured by WST-8 assay according to manufacturer’s protocol. Briefly, cells (1 × 10^4 cells/well) in a 96-well plate were cultured in medium (for MIA PaCa-2, D-MEM (Wako, Japan) containing 10% fetal bovine serum (Funakoshi, Japan), 100 units/mL penicillin G and 100 µg/mL streptomycin (Wako, Japan), for SW620, RPMI-1640 (Wako, Japan) containing 10% fetal bovine serum, 100 units/mL penicillin G and 100 µg/mL streptomycin) were cultured at 37 °C for 24 h under 5% CO2 atmosphere. Then, cells were treated with test compounds (final DMSO concentration was 1%) at 37 °C for 72 h under 5% CO2 atmosphere. Then, cells were treated with a solution of Cell Counting Kit-8® (Dojindo, Japan) for 3 h. After that, cell viabilities were determined based on the measurement of absorption at 450 nm of the wells by using TECAN Infinite® M200 microplate reader. The results were expressed as a percentage of the negative control (cells treated with DMSO only), and that value was fixed at 100%.

In a further series the test system is SW620 cells. Briefly: WST-8 cytotoxicity assay, SW620. As to conditions: for IC50: read-out: IC50 SW620, human colon cancer cell, 72 h, mean ± SE (n = 3). On the procedure: as §1, §2
Background: Tetrazolium assays rely on reduction of a dye to a coloured formazan, in cell work by metabolically active cells.

For `CC(C)[C@H]1C(=O)OC[C@@H](NC(=O)c2cnc3ccccc3n2)C(=O)N[C@@H](C)C(=O)N(C)[C@H]2CSC[C@@H](C(=O)N1C)N(C)C(=O)[C@H](C)NC(=O)[C@H](NC(=O)c1cnc3ccccc3n1)COC(=O)[C@H](C(C)C)N(C)C2=O` [Compound 2], the IC50 in the series on MIA PaCa-2 cells is 0.0081 ± 0.001 µM; with SW620 cells, 0.026 µM and 0.0256 µM.

`CC(C)[C@H]1C(=O)OC[C@@H](NC(=O)c2ccc3ccccc3n2)C(=O)N[C@@H](C)C(=O)N(C)[C@H]2CSC[C@@H](C(=O)N1C)N(C)C(=O)[C@H](C)NC(=O)[C@H](NC(=O)c1ccc3ccccc3n1)COC(=O)[C@H](C(C)C)N(C)C2=O` [Compound 4]: the IC50 in the series on MIA PaCa-2 cells is 0.0058 ± 0.0009 µM. For the same compound, in the series with SW620 cells, the “cytotoxicity to SW620 cells (in words)” value was “slightly better cytotoxicity than 2” and the IC50 stood at 0.0205 ± 0.0031 µM.

In the case of `CC(C)[C@H]1C(=O)OC[C@@H](NC(=O)c2cnc3ccccc3c2)C(=O)N[C@@H](C)C(=O)N(C)[C@H]2CSC[C@@H](C(=O)N1C)N(C)C(=O)[C@H](C)NC(=O)[C@H](NC(=O)c1cnc3ccccc3c1)COC(=O)[C@H](C(C)C)N(C)C2=O` [Compound 5, {N-(Quinoline-3-carbonyl)-D-Ser-L-Ala-N-Boc-N-Me-L-Cys-N-Me-L-Val}2 sulfide], the IC50 in the series on MIA PaCa-2 cells was 0.399 ± 0.076 µM; in the series on SW620 cells it was 1.21 ± 0.035 µM.

Turning to `CC(C)[C@H]1C(=O)OC[C@@H](NC(=O)c2ccc3ncccc3c2)C(=O)N[C@@H](C)C(=O)N(C)[C@H]2CSC[C@@H](C(=O)N1C)N(C)C(=O)[C@H](C)NC(=O)[C@H](NC(=O)c1ccc3ncccc3c1)COC(=O)[C@H](C(C)C)N(C)C2=O` [Compound 6, {N-(Quinoline-6-carbonyl)-D-Ser-L-Ala-N-Boc-N-Me-L-Cys-N-Me-L-Val}2 sulfide], the 50% inhibitory concentration (IC50) amounted to 0.327 ± 0.066 µM in the series with MIA PaCa-2 cells and 1.19 ± 0.187 µM with SW620 cells.

With `CC(C)[C@H]1C(=O)OC[C@@H](NC(=O)c2ccc3ccccc3c2)C(=O)N[C@@H](C)C(=O)N(C)[C@H]2CSC[C@@H](C(=O)N1C)N(C)C(=O)[C@H](C)NC(=O)[C@H](NC(=O)c1ccc3ccccc3c1)COC(=O)[C@H](C(C)C)N(C)C2=O` [Compound 7, {N-(Naphthalene-2-carbonyl)-D-Ser-L-Ala-N-Boc-N-Me-L-Cys-N-Me-L-Val}2 sulfide], the IC50 in the series on MIA PaCa-2 cells is over 10 µM. In addition, in the series with SW620 cells, the “cytotoxicity to SW620 cells (in words)” value is reported as “completely diminished activity” and the half-inhibitory concentration (IC50) is over 10 µM.

On to `CC(C)[C@H]1C(=O)OC[C@@H](NC(=O)c2cc3ccccc3[nH]2)C(=O)N[C@@H](C)C(=O)N(C)[C@H]2CSC[C@@H](C(=O)N1C)N(C)C(=O)[C@H](C)NC(=O)[C@H](NC(=O)c1cc3ccccc3[nH]1)COC(=O)[C@H](C(C)C)N(C)C2=O` [Compound 8, {N-(Indol-2-carbonyl)-D-Ser-L-Ala-N-Boc-N-Me-L-Cys-N-Me-L-Val}2 sulfide], for which the IC50 with MIA PaCa-2 cells and in the series on SW620 cells was over 10 µM in each case.

In the case of `CC(C)[C@H]1C(=O)OC[C@@H](NC(=O)c2c[nH]c3ccccc23)C(=O)N[C@@H](C)C(=O)N(C)[C@H]2CSC[C@@H](C(=O)N1C)N(C)C(=O)[C@H](C)NC(=O)[C@H](NC(=O)c1c[nH]c3ccccc13)COC(=O)[C@H](C(C)C)N(C)C2=O` [Compound 9, {N-(Indol-3-carbonyl)-D-Ser-L-Ala-N-Boc-N-Me-L-Cys-N-Me-L-Val}2 sulfide], the half-maximal inhibitory concentration (IC50) with MIA PaCa-2 cells and with SW620 cells was over 10 µM each time.

In the case of `CC(C)[C@H]1C(=O)OC[C@@H](NC(=O)c2ccc3[nH]ccc3c2)C(=O)N[C@@H](C)C(=O)N(C)[C@H]2CSC[C@@H](C(=O)N1C)N(C)C(=O)[C@H](C)NC(=O)[C@H](NC(=O)c1ccc3[nH]ccc3c1)COC(=O)[C@H](C(C)C)N(C)C2=O` [Compound 10, {N-(Indol-5-carbonyl)-D-Ser-L-Ala-N-Boc-N-Me-L-Cys-N-Me-L-Val}2 sulfide], the IC50 with MIA PaCa-2 cells and with SW620 cells was over 10 µM in each case.

Consider `CC(C)[C@H]1C(=O)OC[C@@H](NC(=O)c2ccc3cc[nH]c3c2)C(=O)N[C@@H](C)C(=O)N(C)[C@H]2CSC[C@@H](C(=O)N1C)N(C)C(=O)[C@H](C)NC(=O)[C@H](NC(=O)c1ccc3cc[nH]c3c1)COC(=O)[C@H](C(C)C)N(C)C2=O` [Compound 11, {N-(Indol-6-carbonyl)-D-Ser-L-Ala-N-Boc-N-Me-L-Cys-N-Me-L-Val}2 sulfide], for which the IC50 in the series with MIA PaCa-2 cells and in the series with SW620 cells was over 10 µM each time.

For the compound `CC(C)[C@H]1C(=O)OC[C@@H](NC(=O)c2cccc3cc[nH]c23)C(=O)N[C@@H](C)C(=O)N(C)[C@H]2CSC[C@@H](C(=O)N1C)N(C)C(=O)[C@H](C)NC(=O)[C@H](NC(=O)c1cccc3cc[nH]c13)COC(=O)[C@H](C(C)C)N(C)C2=O` [Compound 12, {N-(Indol-7-carbonyl)-D-Ser-L-Ala-N-Boc-N-Me-L-Cys-N-Me-L-Val}2 sulfide], the IC50 with MIA PaCa-2 cells and in the series with SW620 cells was over 10 µM throughout.

On to `CC(C)[C@H]1C(=O)OC[C@@H](NC(=O)c2cc3ccccc3o2)C(=O)N[C@@H](C)C(=O)N(C)[C@H]2CSC[C@@H](C(=O)N1C)N(C)C(=O)[C@H](C)NC(=O)[C@H](NC(=O)c1cc3ccccc3o1)COC(=O)[C@H](C(C)C)N(C)C2=O` [Compound 13, {N-(Benzofurane-2-carbonyl)-D-Ser-L-Ala-N-Boc-N-Me-L-Cys-N-Me-L-Val}2 sulfide], for which the concentration for half-maximal inhibition (IC50) with MIA PaCa-2 cells and in the series with SW620 cells was over 10 µM each time.

Consider `CC(C)[C@H]1C(=O)OC[C@@H](NC(=O)c2cc3ccccc3s2)C(=O)N[C@@H](C)C(=O)N(C)[C@H]2CSC[C@@H](C(=O)N1C)N(C)C(=O)[C@H](C)NC(=O)[C@H](NC(=O)c1cc3ccccc3s1)COC(=O)[C@H](C(C)C)N(C)C2=O` [Compound 14, {N-(Benzothiophene-2-carbonyl)-D-Ser-L-Ala-N-Boc-N-Me-L-Cys-N-Me-L-Val}2 sulfide], for which the IC50 with MIA PaCa-2 cells and with SW620 cells was over 10 µM throughout.

Consider `CC(C)[C@H]1C(=O)OC[C@@H](NC(=O)c2ccc3ocnc3c2)C(=O)N[C@@H](C)C(=O)N(C)[C@H]2CSC[C@@H](C(=O)N1C)N(C)C(=O)[C@H](C)NC(=O)[C@H](NC(=O)c1ccc3ocnc3c1)COC(=O)[C@H](C(C)C)N(C)C2=O` [Compound 15, {N-(Benzoxazole-5-carbonyl)-D-Ser-L-Ala-N-Boc-N-Me-L-Cys-N-Me-L-Val}2 sulfide], for which the IC50 with MIA PaCa-2 cells and in the series with SW620 cells was over 10 µM in each case.

With `CC(C)[C@H]1C(=O)OC[C@@H](NC(=O)c2ccc3ncoc3c2)C(=O)N[C@@H](C)C(=O)N(C)[C@H]2CSC[C@@H](C(=O)N1C)N(C)C(=O)[C@H](C)NC(=O)[C@H](NC(=O)c1ccc3ncoc3c1)COC(=O)[C@H](C(C)C)N(C)C2=O` [Compound 16, {N-(Benzoxazole-6-carbonyl)-D-Ser-L-Ala-N-Boc-N-Me-L-Cys-N-Me-L-Val}2 sulfide], the IC50 with MIA PaCa-2 cells and in the series with SW620 cells was over 10 µM throughout.

Consider `CC(C)[C@H]1C(=O)OC[C@@H](NC(=O)c2ccc3ncsc3c2)C(=O)N[C@@H](C)C(=O)N(C)[C@H]2CSC[C@@H](C(=O)N1C)N(C)C(=O)[C@H](C)NC(=O)[C@H](NC(=O)c1ccc3ncsc3c1)COC(=O)[C@H](C(C)C)N(C)C2=O` [Compound 17], for which the IC50 in the series with MIA PaCa-2 cells and in the series with SW620 cells was over 10 µM throughout.

Take `CC(C)[C@H]1C(=O)OC[C@@H](NC(=O)c2ccc(C(=O)c3ccccc3)cc2)C(=O)N[C@@H](C)C(=O)N(C)[C@H]2CSC[C@@H](C(=O)N1C)N(C)C(=O)[C@H](C)NC(=O)[C@H](NC(=O)c1ccc(C(=O)c3ccccc3)cc1)COC(=O)[C@H](C(C)C)N(C)C2=O` [Compound 18, {N-(4-Benzoylphenylcarbonyl)-D-Ser-L-Ala-N-Boc-N-Me-L-Cys-N-Me-L-Val}2 sulfide]: in the series with MIA PaCa-2 cells, the IC50 is over 10 µM. For the same compound, in the series on SW620 cells, the “cytotoxicity to SW620 cells (in words)” value was “lost their cytotoxicity” and the IC50 was over 10 µM.

On to `CC(C)[C@H]1C(=O)OC[C@@H](NC(=O)c2ccc3c(c2)C(=O)c2ccccc2C3=O)C(=O)N[C@@H](C)C(=O)N(C)[C@H]2CSC[C@@H](C(=O)N1C)N(C)C(=O)[C@H](C)NC(=O)[C@H](NC(=O)c1ccc3c(c1)C(=O)c1ccccc1C3=O)COC(=O)[C@H](C(C)C)N(C)C2=O` [Compound 19, {N-(Anthraquinone-2carbonyl)-D-Ser-L-Ala-N-Boc-N-Me-L-Cys-N-Me-L-Val}2 sulfide], for which the IC50 with MIA PaCa-2 cells is over 10 µM. Besides, in the series with SW620 cells, the “cytotoxicity to SW620 cells (in words)” value is given as “lost their cytotoxicity” and the IC50 is over 10 µM.

With `CC(C)[C@H]1C(=O)OC[C@@H](NC(=O)c2cnccn2)C(=O)N[C@@H](C)C(=O)N(C)[C@H]2CSC[C@@H](C(=O)N1C)N(C)C(=O)[C@H](C)NC(=O)[C@H](NC(=O)c1cnccn1)COC(=O)[C@H](C(C)C)N(C)C2=O` [Compound 20, {N-(Pyradine-2carbonyl)-D-Ser-L-Ala-N-Boc-N-Me-L-Cys-N-Me-L-Val}2 sulfide], the “cytotoxicity to SW620 cells (in words)” value with SW620 cells is listed as “lost their cytotoxicity”.

The values are drawn from PMC10985088, “Synthesis and biological evaluation of echinomycin analogues as potential colon cancer agent” (Scientific Reports, 2024).
